± gives the expanded uncertainty stated by the source.
Experiment: mn = molality of the nth substance listed, in mol/kg
Details: 298.15 K, 101.33 kPa, Liquid, Alternating current cell with electrodes

## CCCC[N+](CCCC)(CCCC)CCCC.O=S(=O)([O-])C(F)(F)C(F)(F)C(F)(F)C(F)(F)F [tetrabutylammonium perfluorobutanesulfonate] + O
m1 = 0.002247
  electrical conductivity: 0.0136 ± 0.00027 S/m
m1 = 0.002283
  electrical conductivity: 0.0138 ± 0.00028 S/m
m1 = 0.002308
  electrical conductivity: 0.0139 ± 0.00028 S/m
m1 = 0.002329
  electrical conductivity: 0.014 ± 0.00028 S/m
m1 = 0.002356
  electrical conductivity: 0.0142 ± 0.00028 S/m
m1 = 0.002375
  electrical conductivity: 0.0143 ± 0.00029 S/m
m1 = 0.002407
  electrical conductivity: 0.0145 ± 0.00029 S/m
m1 = 0.002447
  electrical conductivity: 0.0147 ± 0.00029 S/m
m1 = 0.002477
  electrical conductivity: 0.0148 ± 0.0003 S/m
m1 = 0.002494
  electrical conductivity: 0.0149 ± 0.0003 S/m
m1 = 0.002516
  electrical conductivity: 0.015 ± 0.0003 S/m
m1 = 0.002534
  electrical conductivity: 0.0151 ± 0.0003 S/m

## CCCCCCCCn1cc[n+](C)c1.O=S(=O)([O-])C(F)(F)C(F)(F)C(F)(F)C(F)(F)F [1-methyl-3-octylimidazolium perfluorobutanesulfonate] + O
m1 = 0.0003013
  electrical conductivity: 0.0016 ± 3e-05 S/m
m1 = 0.0007028
  electrical conductivity: 0.0037 ± 7e-05 S/m
m1 = 0.001019
  electrical conductivity: 0.0054 ± 0.00011 S/m
m1 = 0.001249
  electrical conductivity: 0.0069 ± 0.00014 S/m
m1 = 0.00155
  electrical conductivity: 0.008 ± 0.00016 S/m
m1 = 0.001919
  electrical conductivity: 0.0102 ± 0.0002 S/m
m1 = 0.0022
  electrical conductivity: 0.0117 ± 0.00023 S/m
m1 = 0.002596
  electrical conductivity: 0.0136 ± 0.00027 S/m
m1 = 0.002912
  electrical conductivity: 0.0145 ± 0.00029 S/m
m1 = 0.003181
  electrical conductivity: 0.0157 ± 0.00031 S/m
m1 = 0.003623
  electrical conductivity: 0.017 ± 0.00034 S/m
m1 = 0.003988
  electrical conductivity: 0.0176 ± 0.00035 S/m
m1 = 0.004309
  electrical conductivity: 0.0183 ± 0.00037 S/m
m1 = 0.004701
  electrical conductivity: 0.0192 ± 0.00038 S/m
m1 = 0.005065
  electrical conductivity: 0.0202 ± 0.0004 S/m
m1 = 0.005333
  electrical conductivity: 0.0206 ± 0.00041 S/m
m1 = 0.005728
  electrical conductivity: 0.0209 ± 0.00042 S/m

## CCCCCC[n+]1ccn(C)c1.O=S(=O)([O-])C(F)(F)C(F)(F)C(F)(F)C(F)(F)F [1-methyl-3-hexylimidazolium perfluorobutanesulfonate] + O
m1 = 0.0006843
  electrical conductivity: 0.0038 ± 8e-05 S/m
m1 = 0.001003
  electrical conductivity: 0.0055 ± 0.00011 S/m
m1 = 0.001271
  electrical conductivity: 0.0072 ± 0.00014 S/m
m1 = 0.001953
  electrical conductivity: 0.0108 ± 0.00022 S/m
m1 = 0.002415
  electrical conductivity: 0.0133 ± 0.00027 S/m
m1 = 0.002944
  electrical conductivity: 0.0163 ± 0.00033 S/m
m1 = 0.003168
  electrical conductivity: 0.0174 ± 0.00035 S/m
m1 = 0.00367
  electrical conductivity: 0.0201 ± 0.0004 S/m
m1 = 0.004364
  electrical conductivity: 0.0235 ± 0.00047 S/m
m1 = 0.004701
  electrical conductivity: 0.0252 ± 0.0005 S/m
m1 = 0.005473
  electrical conductivity: 0.0291 ± 0.00058 S/m
m1 = 0.006118
  electrical conductivity: 0.0323 ± 0.00065 S/m
m1 = 0.006443
  electrical conductivity: 0.0339 ± 0.00068 S/m
m1 = 0.007009
  electrical conductivity: 0.0367 ± 0.00073 S/m
m1 = 0.007312
  electrical conductivity: 0.0382 ± 0.00076 S/m
m1 = 0.007666
  electrical conductivity: 0.04 ± 0.0008 S/m
m1 = 0.007936
  electrical conductivity: 0.0413 ± 0.00083 S/m
m1 = 0.008317
  electrical conductivity: 0.0431 ± 0.00086 S/m
m1 = 0.008657
  electrical conductivity: 0.0448 ± 0.0009 S/m
m1 = 0.009459
  electrical conductivity: 0.0484 ± 0.00097 S/m
m1 = 0.009734
  electrical conductivity: 0.0497 ± 0.00099 S/m
m1 = 0.01004
  electrical conductivity: 0.051 ± 0.001 S/m
m1 = 0.01032
  electrical conductivity: 0.0523 ± 0.001 S/m
m1 = 0.01057
  electrical conductivity: 0.0535 ± 0.0011 S/m
m1 = 0.01151
  electrical conductivity: 0.0567 ± 0.0011 S/m
m1 = 0.01188
  electrical conductivity: 0.0581 ± 0.0012 S/m
m1 = 0.01244
  electrical conductivity: 0.0611 ± 0.0012 S/m
m1 = 0.01292
  electrical conductivity: 0.0624 ± 0.0013 S/m
m1 = 0.01353
  electrical conductivity: 0.0644 ± 0.0013 S/m
m1 = 0.01416
  electrical conductivity: 0.0668 ± 0.0013 S/m
m1 = 0.01452
  electrical conductivity: 0.069 ± 0.0014 S/m

## CCCC[N+]1(C)CCCC1.O=S(=O)([O-])C(F)(F)C(F)(F)C(F)(F)C(F)(F)F [1-butyl-1-methylpyrrolidinium perfluorobutanesulfonate] + O
m1 = 0.004597
  electrical conductivity: 0.0233 ± 0.00047 S/m
m1 = 0.005016
  electrical conductivity: 0.0254 ± 0.00051 S/m
m1 = 0.005639
  electrical conductivity: 0.0279 ± 0.00056 S/m
m1 = 0.006033
  electrical conductivity: 0.0293 ± 0.00059 S/m
m1 = 0.006491
  electrical conductivity: 0.0311 ± 0.00062 S/m
m1 = 0.007025
  electrical conductivity: 0.0343 ± 0.00069 S/m
m1 = 0.007655
  electrical conductivity: 0.0363 ± 0.00073 S/m
m1 = 0.008405
  electrical conductivity: 0.0397 ± 0.00079 S/m
m1 = 0.00933
  electrical conductivity: 0.0447 ± 0.00089 S/m
m1 = 0.0105
  electrical conductivity: 0.0483 ± 0.00097 S/m
m1 = 0.012
  electrical conductivity: 0.0554 ± 0.0011 S/m
m1 = 0.01274
  electrical conductivity: 0.0584 ± 0.0012 S/m
m1 = 0.01401
  electrical conductivity: 0.0642 ± 0.0013 S/m
m1 = 0.01533
  electrical conductivity: 0.0697 ± 0.0014 S/m
m1 = 0.01608
  electrical conductivity: 0.0731 ± 0.0015 S/m
m1 = 0.01691
  electrical conductivity: 0.0769 ± 0.0015 S/m
m1 = 0.01784
  electrical conductivity: 0.0804 ± 0.0016 S/m

## CCCCCCCCCCCCn1cc[n+](C)c1.O=S(=O)([O-])C(F)(F)C(F)(F)C(F)(F)C(F)(F)F [1-dodecyl-3-methylimidazolium perfluorobutanesulfonate] + O
m1 = 1.598e-05
  electrical conductivity: 0.00011 ± 1e-05 S/m
m1 = 2.066e-05
  electrical conductivity: 0.00016 ± 1e-05 S/m
m1 = 2.421e-05
  electrical conductivity: 0.00018 ± 1e-05 S/m
m1 = 2.925e-05
  electrical conductivity: 0.00022 ± 1e-05 S/m
m1 = 3.682e-05
  electrical conductivity: 0.0003 ± 1e-05 S/m
m1 = 4.977e-05
  electrical conductivity: 0.00041 ± 1e-05 S/m
m1 = 5.764e-05
  electrical conductivity: 0.00048 ± 1e-05 S/m
m1 = 7.583e-05
  electrical conductivity: 0.00063 ± 1e-05 S/m
m1 = 8.783e-05
  electrical conductivity: 0.0007 ± 2e-05 S/m
m1 = 0.0001043
  electrical conductivity: 0.00085 ± 2e-05 S/m
m1 = 0.0001122
  electrical conductivity: 0.00089 ± 2e-05 S/m
m1 = 0.0001213
  electrical conductivity: 0.00095 ± 2e-05 S/m
m1 = 0.000132
  electrical conductivity: 0.00101 ± 2e-05 S/m
m1 = 0.0001448
  electrical conductivity: 0.00109 ± 2e-05 S/m
m1 = 0.0001603
  electrical conductivity: 0.00118 ± 2e-05 S/m
m1 = 0.0001796
  electrical conductivity: 0.00129 ± 3e-05 S/m
m1 = 0.0001903
  electrical conductivity: 0.00136 ± 3e-05 S/m

Reference: the NIST ThermoML archive (doi:10.1016/j.jct.2014.10.021)
